{"source": "patent US12202866B2", "about": "“Therapeutic nanoconjugates and uses thereof” (UNIVERSITAT AUTÒNOMA DE BARCELONA (UAB), priority 2017, dated 2025)", "key": {"[1]": {"assay": "Nanoparticle size by dynamic light scattering", "type": "physicochemical", "procedure": "The volume and size distribution of the nanoparticles was determined by dynamic light scattering at 633 nm (Zetasizer Nano ZS, Malvern Instruments Limited, Malvern, Worcestershire, UK). Nanoconjugate size was also measured using purified samples, diluted to 0.2 mg/mL and contrasted by evaporation of 1 nm platinum layer in carbon-coated grids, before being visualized in a Hitachi H-7000 transmission electron microscope (TEM), as described33."}, "[2]": {"tested_on": "CXCR4^+ HeLa human cervical carcinoma cell line", "assay": "Internalization in CXCR4+ HeLa cells (flow cytometry, AMD3100 competition)", "type": "cell-based", "settings": "1 hour exposure, 1 μM", "procedure": "To assess specificity for CXCR4 receptor mediated internalization, competition studies incubating CXCR4^+ HeLa cells with the CXCR4 antagonist AMD3100 (octahydrochloride hydrate, Sigma-Aldrich) were performed in a 1:10 (Protein:antagonist) molar ratio for 1 h before exposure to the nanoconjugate, as previously described for the T22-GFP-H6.\nNuclei were labeled with Hoechst 33342 (Life Technologies) and plasma membranes CellMask™ Deep Red (Life Technologies)."}, "[3]": {"tested_on": "subcutaneous CXCR4^+ SW1417 CRC tumor", "assay": "Induction of DNA double strand breaks and apoptosis in tumor tissue, SC SW1417 model", "type": "in vivo, mouse", "procedure": "The SC SW1417 mouse model was used to determine the capacity of the nanoconjugate to induce DNA damage and apoptosis in tumor tissue, as well as the kinetics of CXCR4 expression in the membrane of tumor cells after treatment, regarding the fraction of CXCR4 expressing tumor cells and their intensity, since CXCR4^+ are the target cells for the nanoconjugate. […] The mice had been treated with equimolecular dosages of T22-GFP-H6, free oligo-FdU or Buffer, in which also were determined the levels of CXCR4 expression in tumor tissue at the different time points."}, "[4]": {"tested_on": "CXCR4^+ SW1417 CRC metastases", "assay": "Prevention of metastasis protocol, SC+ORT CXCR4+ SW1417 CRC model", "type": "in vivo, NOD/SCID mice", "procedure": "Thus, a SC+ORT model, was produced: when SC tumors reached a volume of 700 mm3, mice were sacrificed by cervical dislocation and tumours were excised, discarding the necrotic areas. Three hundred mg of viable tumour tissue was then cut into pieces and disaggregated in a mix of 0.05% trypsin (Invitrogen) and 100 mg/ml DNase (Sigma-Aldrich). The mix was pipetted 30 times, using a 10 ml pipette, and incubated for 10 minutes at 37° C. with shaking. It was then re-pipetted 30 times, using 10 ml, 3 ml and 1 ml pipettes, and re-incubated for 5 minutes at 37° C. with shaking. This re-pipetting step was then repeated. The obtained SW1417 single-cell suspension was filtered through a cell strainer and centrifuged at 1,000 g for 10 minutes before counting the cells. Then 2×10^6 cells, […] resuspended in 50 μl of media, were microinjected in the cecum of each mouse, following the method described above.\nThe SC+ORT metastatic CRC model developed in NOD/SCID mice was used to evaluate the capacity of the nanoconjugate for metastasis prevention.\nAt necropsy, the number and size of visible metastases in the organs where dissemination is expected in colorectal cancer (lymph nodes, liver, lung and peritoneum) were recorded for each mouse in all compared groups. Also the number of metastatic foci that emitted bioluminiscence (derived from the SW1417-luci CRC cells) were counted ex vivo in the target organs for metastasis, using the IVIS® 200-Spectrum (Perkin-Elmer). Samples for histopathological and immunohistochemical analyses were collected and processed. Two independent observers analyzed H&E stained samples to count the number and measure the size of all observed metastatic foci in three (metastasis prevention experiment) or six (regression of metastasis experiment) sections of each organ in each mouse. The images were taken and the measurements were performed with an Olympus microscope with the CellD Olympus software (v3.3). […] The obtained results were used to study a possible correlation between CXCR4^+ CCF and antimetastatic effect at the different sites.\nIn order to analyze differences between control and experimental groups of affected mice in metastatic rates at the different organs, Fisher's exact test was used. The Mann-Whitney test was used to compare number and size of metastatic foci in the affected organs among groups. All quantitative values were expressed as mean±SE and the statistical tests were performed using SPSS version 11.0 (IBM, New York, USA). Differences among groups was considered significant at a p<0.05."}, "[5]": {"assay": "Biodistribution and toxicity in normal organs, bone marrow and circulating blood cells", "type": "in vivo, mouse", "procedure": "At necropsy, bone marrow was extracted and registered ex vivo in the IVIS® 200-Spectrum equipment. Mouse blood was collected by punction in the maxillary plexus. The erythrocytes, leucocytes and platelets were isolated by the Ficoll density gradient method using the standard protocol. Further, pellets were obtained by centrifugation of the isolated cell extracts at 600 g, 10 min and then recorded to measure fluorescence using IVIS® 200-Spectrum.\nIn addition, two independent observers evaluated the possible histopathological alterations observed in H&E stained non-tumor tissue samples, searching for signs of toxicity."}, "[6]": {"settings": "Prevention protocol, 3 histology sections, mean + SE"}, "[7]": {"settings": "versus free oligo-FdU mice, histology, end of experiment"}}, "note": "Marks after values point to notes of the source that are not given here.", "data": [{"substance": "T22-GFP-H6-FdU: nanoconjugate of T22-GFP-H6 protein nanoparticle covalently bound via maleimide linker to thiol-functionalized pentameric floxuridine oligonucleotide (oligo-FdU)", "values": [{"measurement": "size determined by dynamic light scattering", "setting": "[1]; Example 2, unit not given", "value": "14.6+0.14"}, {"measurement": "size (DLS)", "setting": "[1]; Example 3", "value": "14.66+0.14 nm"}, {"measurement": "internalization in HeLa cells", "setting": "[2]", "value": "CXCR4-dependent nanoconjugate internalization"}, {"measurement": "number of apoptotic figures in tumor tissue (Hoechst nuclear condensation or defragmentation)", "setting": "[3]; 24 h after injection", "value": "13.9±0.5"}, {"measurement": "number of DSBs foci in tumors (anti-gH2AX IHC)", "setting": "[3]; five hours after treatment", "value": "22.8±1.4"}, {"measurement": "LN foci, mean foci number per mouse", "setting": "[4]; Prevention protocol, 20 μg (or equimolecular) q3d x12 i.v., 3 histology sections, mean + SE", "value": "2.0 ± 0.4 ^a"}, {"measurement": "Liver foci, mean foci number per mouse", "setting": "[4]; [6]", "value": "0.2 ± 0.1 ^b,c"}, {"measurement": "Lung foci, mean foci number per mouse", "setting": "[4]; [6]", "value": "1.3 ± 0.9 ^d,e"}, {"measurement": "Peritoneal foci, mean foci number per mouse", "setting": "[4]; [6]", "value": "0.4 ± 0.3 ^f,g"}, {"measurement": "reduction in the size of peritoneal foci", "setting": "[4]; compared to free oligo-FdU", "value": 2.4, "unit": "fold"}, {"measurement": "Metastasis Liver [%]", "setting": "[4]; end of prevention experiment", "value": "[17]^a %"}, {"measurement": "Metastasis Liver, affected/total mice", "setting": "[4]; end of prevention experiment", "value": "2/12"}, {"measurement": "Metastasis Lung [%]", "setting": "[4]; end of prevention experiment", "value": "[17]^b,c %"}, {"measurement": "Metastasis Lung, affected/total mice", "setting": "[4]; end of prevention experiment", "value": "2/12"}, {"measurement": "Metastasis Lymph nodes [%]", "setting": "[4]; end of prevention experiment", "value": "[75] %"}, {"measurement": "Metastasis Lymph nodes, affected/total mice", "setting": "[4]; end of prevention experiment", "value": "9/12"}, {"measurement": "Metastasis Peritoneal [%]", "setting": "[4]; end of prevention experiment", "value": "[17]^d %"}, {"measurement": "Metastasis Peritoneal, affected/total mice", "setting": "[4]; end of prevention experiment", "value": "2/12"}, {"measurement": "metastasis development in liver and lung by ex vivo luminescence", "setting": "[4]; end of prevention experiment", "value": "blocked metastasis development"}, {"measurement": "remaining CXCR4^+ CCF in liver, lung and peritoneal metastatic tissue (anti-CXCR4 IHC)", "setting": "[4]; end of prevention experiment", "value": "higher reduction"}, {"measurement": "prevention of LN metastases", "setting": "[4]; histology, end of experiment", "value": "did not prevent"}, {"measurement": "Metastasis Size, Liver", "setting": "[4]; mean foci size", "value": 8.7, "unit": "μm^2 × 10^−3"}, {"measurement": "Metastasis Size, Lung", "setting": "[4]; mean foci size", "value": 15.1, "unit": "μm^2 × 10^−3"}, {"measurement": "Metastasis Size, Lymph nodes", "setting": "[4]; mean foci size", "value": 79.3, "unit": "μm^2 × 10^−3"}, {"measurement": "Metastasis Size, Peritoneal", "setting": "[4]; mean foci size", "value": 126.6, "unit": "μm^2 × 10^−3"}, {"measurement": "Primary tumor Positive/#Mice", "setting": "[4]; mice bearing a primary tumor out of total mice per group", "value": "12/12"}, {"measurement": "Primary tumor [%]", "setting": "[4]; percent of mice bearing a primary tumor", "value": "[100] %"}, {"measurement": "primary tumor growth by in vivo bioluminescence emission", "setting": "[4]; prevention experiment, compared to buffer-treated mice", "value": "no significant inhibition"}, {"measurement": "reduction in the total number of metastases in liver or lung", "setting": "[4]; [7]", "value": "3.1-3.7 times"}, {"measurement": "reduction in the total number of metastases in the peritoneum", "setting": "[4]; [7]", "value": 10.3, "unit": "fold"}, {"measurement": "fluorescence emission in erythrocytes, leucocytes or platelets", "setting": "[5]; 5 h after doses in the 10-100 μg range", "value": "Lack of fluorescence emission"}, {"measurement": "fluorescence emission in spleen or bone marrow", "setting": "[5]; 5 h after single injections, 10-100 μg range", "value": "Lack of fluorescence emission"}, {"measurement": "level of DSBs in liver (anti-gH2AX IHC)", "setting": "[5]; 5 h after treatment", "value": "undetectable"}, {"measurement": "apoptosis or histological alteration in bone marrow or liver", "setting": "[5]; 24 h post-administration", "value": "not detected"}, {"measurement": "mouse body weight", "setting": "[5]; regression and prevention of metastases experiments", "value": "lack of mouse body weight loss"}]}]}
